According to patent US20160237302A1, “WATERBORNE COMPOSITIONS” (VICTORIA LINK LIMITED, priority 2013, published 2016):

Tests used:
Format in all cases: physicochemical
[1] = Appearance of polyketone in water at 20% w/v
Procedure: (§1) To a solution or dispersion of the polyketone (1 g in 5 mL of distilled water) is added hydrazide (0.9 stoichiometric equivalents of acyl hydrazide moiety compared to ketone functional group).

[2] = Appearance of aqueous composition on hydrazide addition (polyhydrazone formation); conditions: appearance in water; for Polyhydrazone from 0.9 eq ADH addition: polyketone 20% w/v + 0.9 eq ADH; for Polyhydrazone from 0.9 eq Formula II-B addition / Polyhydrazone from 0.9 eq Formula II-C addition: polyketone 20% w/v
Procedure: as §1

[3] = Film formation of cast polyhydrazone material; conditions: for Cast material: cast from water
Procedure: as §1

[4] = Glass transition temperature by DSC; conditions: for Tg: polyhydrazone from polyketone + 0.9 eq ADH, DSC
Procedure: Glass transition temperatures (Tg) are measured by differential scanning calorimetry (DSC). Samples were prepared by compressing 2-20 mg of material into a 40 μL pierced aluminium pan and were scanned between −40° and +180° C. at either 10° C./min or 5° C./min. The samples were heated and cooled three times and Tg data were obtained from the second and third sweep; ignoring the initial annealing and desolvating sweep. Tg were determined by observation of the rate of change of slope and baseline shift for the glass and plastic states.
as §1

[5] = Polyhydrazone formation in ACN, ACN/water, THF/water or water at 20-50% w/v; conditions: appearance
[6] = Appearance of aqueous composition on hydrazide addition (polyhydrazone formation); conditions: water
[7] = polyhydrazone from polyketone + 0.9 eq ADH
[8] = polyhydrazone from (7) and formula II-C, cast film

## CC(=O)CCC(=O)OCC(COC(=O)CCC(C)=O)OC(=O)CCC(C)=O [Polyketone compound (3), Glycerol Trilevulinate]
[1]; 1 g in 5 mL distilled water
  Polyketone in water at 20% w/v: Unstable emulsion
[2]
  Polyhydrazone from 0.9 eq ADH addition: Gels upon
[3]; [7]
  Cast material: Hard shiny well adhered
[4]
  Tg: 60 °C

## CC(=O)CCC(=O)OCCOCCOC(=O)CCC(C)=O [Polyketone compound (2), Diethyleneglycol Dilevulinate]
[1]; 1 g in 5 mL distilled water
  Polyketone in water at 20% w/v: Clear solution
[1]; second table
  Polyketone in water at 20% w/v: Clear solution
[2]
  Polyhydrazone from 0.9 eq Formula II-B addition: Cloudy solution, gel
  Polyhydrazone from 0.9 eq Formula II-C addition: Cloudy solution,
  Polyhydrazone from 0.9 eq ADH addition: Clear solution
[3]; [7]
  Time over which cast film hardened: hardened over 5-days.
  Cast material: Soft easily marked film that
[4]
  Tg: 27 °C

## CC(=O)CCC(=O)OCCOC(=O)CCC(C)=O [Polyketone compound (1), Ethyleneglycol Dilevulinate]
[1]; 1 g in 5 mL distilled water
  Polyketone in water at 20% w/v: Clear solution
[1]; second table
  Polyketone in water at 20% w/v: Clear solution
[2]
  Polyhydrazone from 0.9 eq Formula II-B addition: White precipitate
  Polyhydrazone from 0.9 eq ADH addition: Clear solution
[2]; initially after hydrazide addition
  Polyhydrazone from 0.9 eq Formula II-C addition: Clear solution
[2]; subsequently after hydrazide addition
  Polyhydrazone from 0.9 eq Formula II-C addition: precipitate forms
[3]; [7]
  Cast material: Shiny soft well adhered
[4]
  Tg: 37 °C

## CC(=O)CCC(=O)OC(C)C(C)OC(=O)CCC(C)=O (stereo not drawn) [Polyketone compound (7), 2,3-Butanediol Dilevulinate]
[1]; 1 g in 5 mL distilled water
  Polyketone in water at 20% w/v: Unstable emulsion
[2]
  Polyhydrazone from 0.9 eq ADH addition: Opaque solution
[3]; polyhydrazone from (7) and formula II-C
  Cast film of polyhydrazone oil: strong brittle film
[3]; [7]
  Cast material: Hard film
[4]; [8]
  Tg (annealed): 20 °C
  Tg (initial): 38.5 °C
[4]
  Tg: 121 °C
[5]
  Polyhydrazone from 0.9 eq ADH in ACN at 50% w/v: Pale yellow solid
  Polyhydrazone from 0.9 eq ADH in water at 50% w/v: Pale yellow gel
  Polyhydrazone from 0.9 eq. Formula II-C in ACN at 50% w/v: Yellow oil

## CC(=O)CCC(=O)OCc1ccc(COC(=O)CCC(C)=O)cc1 [Polyketone compound (8), 1,4-Dimethanolbenzene Dilevulinate]
[5]
  Polyhydrazone from 0.9 eq ADH in ACN at 50% w/v: Yellow oil formed
  Polyhydrazone from 0.9 eq ADH in water at 50% w/v: Pale yellow gel

## CC(=O)CCC(=O)OCCN(CCOC(=O)CCC(C)=O)CCOC(=O)CCC(C)=O [Polyketone compound (6), Triethanolamine Trilevulinate]
[1]; 1 g in 5 mL distilled water
  Polyketone in water at 20% w/v: Clear solution
[1]; second table
  Polyketone in water at 20% w/v: Clear solution
[2]
  Polyhydrazone from 0.9 eq Formula II-B addition: No reaction
  Polyhydrazone from 0.9 eq Formula II-C addition: Forms white solid
  Polyhydrazone from 0.9 eq ADH addition: Clear solution
[4]
  Tg: 38 °C
[6]
  Polyhydrazone from 0.9 eq ADH addition, at higher concentrations: Gels at higher
